Reference: US6624182B1, “Hydroxyphenylvinylthiazoles” (Ciba Specialty Chemicals Corporation, priority 1999, dated 2003)

What was measured:
Assay in all cases: Determination of the minimum inhibitory concentration (MIC value) in microtitre plates
A. niger = format: cell-based, Aspergillus niger ATCC 6275; settings: optical density at 620 nm, 5 days at 28° C., MIC = ≦20% growth; tested at 100; 10 and 1 ppm (approximate values); (2), (3), (4) at 120; 60; 30; 15; 7.5; 3.75 ppm
Protocol: (§1) Determination of the Minimum Inhibitory Concentration (MIC Value) in Microtitre Plates Nutrient Medium Casein/soybean flour/peptone bouillon for the preparation of preliminary cultures of the test bacteria and yeast. Mycological slant agar for the preliminary culture of moulds Examples of Test Microbes: Mould: Aspergillus niger ATCC 6275 Procedure: The test substances are pre-dissolved in dimethyl sulfoxide (DMSO) and tested in a series of dilutions of 1:2. Bacteria and yeast are cultured overnight in CASO bouillon; the mould is cultured on myco-logical slant agar and sponged off with 10 ml of 0.85% sodium chloride solution (+0.1% Triton X-100). All the test microbes are adjusted to a germ count of 1−5×10^6 KBE/ml using 0.85% sodium chloride solution. The test substances are pre-pipetted into microtitre plates in an amount of 8 μl per well. Pre-diluted microbe suspensions are diluted 1:100 in CASO bouillon (bacteria and yeast) or Sabouraud 2% glucose bouillon (mould) and added to the test substances in an amount of 192 μl per well. The test batches are incubated for 48 hours at 37° C. (bacteria and yeast) or for 5 days at 28° C. (mould). After incubation, the growth is determined by means of the clouding of the test batches (optical density) at 620 nm in a microplate reader. The concentration of substance at which (compared with the growth control) a marked inhibition of growth (≦20% growth) of the test microbes can be observed is given as the minimum inhibitory concentration (MIC value). One microtitre plate is used per test microbe and substance concentration. All substances are tested in duplicate.

C. albicans = format: cell-based, Candida albicans ATCC 10231; settings: optical density at 620 nm, 48 hours at 37° C., MIC = ≦20% growth; tested at 100; 10 and 1 ppm (approximate values); (2), (3), (4) at 120; 60; 30; 15; 7.5; 3.75 ppm
Protocol: as §1, with “Yeast: Candida albicans” for “Mould: Aspergillus niger”, “10231” for “6275”

P. aeruginosa = format: cell-based, Pseudomonas aeruginosa CIP A-22; settings: optical density at 620 nm, 48 hours at 37° C., MIC = ≦20% growth; tested at 100; 10 and 1 ppm (approximate values); (2), (3), (4) at 120; 60; 30; 15; 7.5; 3.75 ppm
Protocol: as §1, with “Bacteria: Pseudomonas aeruginosa CIP A-22” for “Mould: Aspergillus niger ATCC 6275”

S. aureus = format: cell-based; settings: optical density at 620 nm, 48 hours at 37° C., MIC = ≦20% growth; tested at 100; 10 and 1 ppm (approximate values); (2), (3), (4) at 120; 60; 30; 15; 7.5; 3.75 ppm
Description: as §1, with “Bacteria: Staphylococcus hominis DMS 20328” for “Mould: Aspergillus niger ATCC 6275”

E. coli = format: cell-based, Escherichia coli NCTC 8196; settings: optical density at 620 nm, 48 hours at 37° C., MIC = ≦20% growth; tested at 100; 10 and 1 ppm (approximate values); (2), (3), (4) at 120; 60; 30; 15; 7.5; 3.75 ppm
Protocol: as §1, with “Bacteria: Escherichia coli NCTC 8196” for “Mould: Aspergillus niger ATCC 6275”

CCOc1cc(/C=C/c2nc(-c3ccc(F)cc3)cs2)ccc1O [Compound of formula (7)]
>100 ppm: MIC values in ppm A. niger (A. niger) | MIC values in ppm C. albicans (C. albicans) | MIC values in ppm P. aeruginosa (P. aeruginosa) | MIC values in ppm S. aureus (S. aureus) | MIC values in ppm E. coli (E. coli)

COc1ccc(/C=C/c2nc(-c3ccccc3)cs2)cc1O [Compound of formula (52)]
>100 ppm: MIC values in ppm A. niger (A. niger) | MIC values in ppm C. albicans (C. albicans) | MIC values in ppm P. aeruginosa (P. aeruginosa) | MIC values in ppm S. aureus (S. aureus) | MIC values in ppm E. coli (E. coli)

COc1cc(O)ccc1/C=C/c1nc(-c2ccc(N3CCCC3)cc2)cs1 [Compound of formula (38)]
>100 ppm: MIC values in ppm A. niger (A. niger) | MIC values in ppm C. albicans (C. albicans) | MIC values in ppm P. aeruginosa (P. aeruginosa) | MIC values in ppm S. aureus (S. aureus) | MIC values in ppm E. coli (E. coli)

Oc1cc(OCc2ccccc2)ccc1/C=C/c1nc(-c2ccc(F)cc2)cs1 [Compound of formula (14)]
>100 ppm: MIC values in ppm A. niger (A. niger) | MIC values in ppm C. albicans (C. albicans) | MIC values in ppm P. aeruginosa (P. aeruginosa) | MIC values in ppm S. aureus (S. aureus) | MIC values in ppm E. coli (E. coli)

COc1cc(O)ccc1/C=C/c1nc(C(C)(C)C)cs1 [Compound of formula (26)]
>100 ppm: MIC values in ppm A. niger (A. niger) | MIC values in ppm C. albicans (C. albicans) | MIC values in ppm P. aeruginosa (P. aeruginosa) | MIC values in ppm S. aureus (S. aureus) | MIC values in ppm E. coli (E. coli)

Oc1ccccc1/C=C/c1nc(-c2ccc(F)cc2)cs1 [Compound of formula (10)]
>100 ppm: MIC values in ppm A. niger (A. niger) | MIC values in ppm C. albicans (C. albicans) | MIC values in ppm P. aeruginosa (P. aeruginosa) | MIC values in ppm S. aureus (S. aureus) | MIC values in ppm E. coli (E. coli)

Cc1cccc(/C=C/c2nc(C(C)(C)C)cs2)c1O [Compound of formula (24)]
>100 ppm: MIC values in ppm A. niger (A. niger) | MIC values in ppm C. albicans (C. albicans) | MIC values in ppm P. aeruginosa (P. aeruginosa) | MIC values in ppm S. aureus (S. aureus) | MIC values in ppm E. coli (E. coli)

COc1ccc(/C=C/c2nc(-c3ccc(N4CCCC4)cc3)cs2)cc1O [Compound of formula (29)]
>100 ppm: MIC values in ppm A. niger (A. niger) | MIC values in ppm C. albicans (C. albicans) | MIC values in ppm P. aeruginosa (P. aeruginosa) | MIC values in ppm S. aureus (S. aureus) | MIC values in ppm E. coli (E. coli)

Oc1cccc(/C=C/c2nc(-c3ccc(N4CCCC4)cc3)cs2)c1 [Compound of formula (28)]
>100 ppm: MIC values in ppm A. niger (A. niger) | MIC values in ppm C. albicans (C. albicans) | MIC values in ppm P. aeruginosa (P. aeruginosa) | MIC values in ppm S. aureus (S. aureus) | MIC values in ppm E. coli (E. coli)

Oc1cccc(/C=C/c2nc(-c3ccccc3)cs2)c1 [Compound of formula (51)]
>100 ppm: MIC values in ppm A. niger (A. niger) | MIC values in ppm C. albicans (C. albicans) | MIC values in ppm P. aeruginosa (P. aeruginosa) | MIC values in ppm S. aureus (S. aureus) | MIC values in ppm E. coli (E. coli)

Cc1cc(/C=C/c2nc(C(C)(C)C)cs2)cc(C)c1O [Compound of formula (23)]
>100 ppm: MIC values in ppm A. niger (A. niger) | MIC values in ppm C. albicans (C. albicans) | MIC values in ppm P. aeruginosa (P. aeruginosa) | MIC values in ppm S. aureus (S. aureus) | MIC values in ppm E. coli (E. coli)

COc1cc(/C=C/c2nc(-c3ccc(N4CCCC4)cc3)cs2)ccc1O [Compound of formula (31)]
>100 ppm: MIC values in ppm A. niger (A. niger) | MIC values in ppm C. albicans (C. albicans) | MIC values in ppm P. aeruginosa (P. aeruginosa) | MIC values in ppm S. aureus (S. aureus) | MIC values in ppm E. coli (E. coli)

Cc1cccc(/C=C/c2nc(-c3ccc(N4CCCC4)cc3)cs2)c1O [Compound of formula (36)]
>100 ppm: MIC values in ppm A. niger (A. niger) | MIC values in ppm C. albicans (C. albicans) | MIC values in ppm P. aeruginosa (P. aeruginosa) | MIC values in ppm S. aureus (S. aureus) | MIC values in ppm E. coli (E. coli)

Cc1cc(/C=C/c2nc(-c3ccccc3)cs2)cc(C)c1O [Compound of formula (58)]
>100 ppm: MIC values in ppm A. niger (A. niger) | MIC values in ppm C. albicans (C. albicans) | MIC values in ppm P. aeruginosa (P. aeruginosa) | MIC values in ppm S. aureus (S. aureus) | MIC values in ppm E. coli (E. coli)
